From the NIST ThermoML archive (doi:10.1016/j.tca.2018.03.002)
Numbers after ± are expanded uncertainties.

Conditions: Crystal; DTA

Compound	Normal melting temperature [°C]
O=CO [formic acid]	9.70 ± 8
CCC(=O)O [propanoic acid]	-21.20 ± 2
O [water]	0.00 ± 2
CCCC(=O)O [butanoic acid]	-4.50 ± 4
CC(=O)O [acetic acid]	16.80 ± 6
